Consider 20 compounds from ChEMBL document CHEMBL3779877, “Anticancer activity studies of cubebin isolated from Piper cubeba and its synthetic derivatives” (Bioorg Med Chem Lett, 2016).

As usually defined, the pIC50 is −log10 of the IC50, conventionally taken in molar units.

pIC50: −log10 of the molar value. Active and inactive are the calls of the source. The rule behind the calls is not given here.

Assay [1] deals with A549. In words: Cytotoxicity against human A549 cells assessed as reduction in viable cells after 48 hrs by MTT assay. In kind it is functional, cell-based. The settings on record: A549, 48 h.
Assay [2] deals with KB. In words: Cytotoxicity against human KB cells assessed as reduction in viable cells after 48 hrs by MTT assay. Format: functional, cell-based. On the technique in general: Tetrazolium assays rely on reduction of a dye to a coloured formazan, in cell work by metabolically active cells.
For the next assay, the system named is K562. Description: Cytotoxicity against human K562 cells assessed as reduction in viable cells after 48 hrs by MTT assay. In kind it is functional, cell-based. The conditions noted are these: K562, 48 h.
Another assay has as its system SiHa. Description: Cytotoxicity against human SiHa cells assessed as reduction in viable cells after 48 hrs by MTT assay. Format: functional, cell-based.
A further assay has as its system HT-29. In words: Cytotoxicity against human HT-29 cells assessed as reduction in viable cells after 48 hrs by MTT assay. Format: functional, cell-based. The conditions noted are these: HT-29, 48 h.
Assay [3] in a line: Cytotoxicity against human HCT116 cells assessed as reduction in viable cells after 48 hrs by MTT assay. In kind it is functional, cell-based. The conditions noted are these: HCT-116, 48 h.
For assay [4], the system named is KB. In words: Induction of apoptosis in human KB cells assessed as chromosomal condensation at cytotoxic IC50 after 48 hrs by AO/EB dual staining based fluorescent microscopic analysis. In kind it is functional, cell-based.
Assay [5] deals with KB. Description: Induction of apoptosis in human KB cells assessed as loss of normal nuclear architecture at cytotoxic IC50 after 48 hrs by inverted microscopic analysis. In kind it is functional, cell-based.
Assay [6] concerns KB. Description: Induction of apoptosis in human KB cells assessed as cell shrinkage at cytotoxic IC50 after 48 hrs by AO/EB dual staining based fluorescent microscopic analysis. In kind it is functional.
The test system of assay [7] is KB. Description: Induction of apoptosis in human KB cells assessed as condensed nuclei at cytotoxic IC50 after 48 hrs by Hoechst 33342 staining based fluorescent microscopic analysis. Format: functional, cell-based.
In assay [8] the test system is KB. Description: Induction of apoptosis in human KB cells assessed as detached cells at cytotoxic IC50 after 48 hrs by inverted microscopic analysis. In kind it is functional, cell-based.
Assay [9] deals with KB. Description: Induction of apoptosis in human KB cells assessed as fragmented nuclei at cytotoxic IC50 after 48 hrs by Hoechst 33342 staining based fluorescent microscopic analysis. Format: functional, cell-based.
Assay [10] has as its system KB. Description: Induction of apoptosis in human KB cells assessed as membrane blebbing at cytotoxic IC50 after 48 hrs by AO/EB dual staining based fluorescent microscopic analysis. Format: functional, cell-based.
In assay [11] the test system is KB. Description: Induction of apoptosis in human KB cells assessed as cell shrinkage at cytotoxic IC50 after 48 hrs by inverted microscopic analysis. Format: functional, cell-based.
Assay [12] deals with A549. In words: Induction of apoptosis in human A549 cells assessed as condensed nuclei at cytotoxic IC50 after 48 hrs by Hoechst 33342 staining based fluorescent microscopic analysis. In kind it is functional, cell-based.
Assay [13] has as its system A549. In words: Induction of apoptosis in human A549 cells assessed as membrane blebbing at cytotoxic IC50 after 48 hrs by AO/EB dual staining based fluorescent microscopic analysis. Format: functional, cell-based.
Assay [14] deals with A549. In words: Induction of apoptosis in human A549 cells assessed as detached cells at cytotoxic IC50 after 48 hrs by inverted microscopic analysis. Format: functional, cell-based.
The subject of assay [15] is A549. Description: Induction of apoptosis in human A549 cells assessed as cell shrinkage at cytotoxic IC50 after 48 hrs by AO/EB dual staining based fluorescent microscopic analysis. Format: functional.
For assay [16], the system named is A549. Description: Induction of apoptosis in human A549 cells assessed as fragmented nuclei at cytotoxic IC50 after 48 hrs by Hoechst 33342 staining based fluorescent microscopic analysis. Format: functional, cell-based.
The test system of assay [17] is A549. In words: Induction of apoptosis in human A549 cells assessed as loss of normal nuclear architecture at cytotoxic IC50 after 48 hrs by inverted microscopic analysis. In kind it is functional, cell-based.
Assay [18] concerns A549. In words: Induction of apoptosis in human A549 cells assessed as chromosomal condensation at cytotoxic IC50 after 48 hrs by AO/EB dual staining based fluorescent microscopic analysis. Format: functional, cell-based.
Assay [19] has as its system A549. In words: Induction of apoptosis in human A549 cells assessed as cell shrinkage at cytotoxic IC50 after 48 hrs by inverted microscopic analysis. Format: functional, cell-based.
Assay [20] in a line: Cytotoxicity against human HCT116. Format: functional. The settings on record: HCT-116.

Take `O=C(NCc1ccccc1)[C@@H](Cc1ccc2c(c1)OCO2)[C@@H](CO)Cc1ccc2c(c1)OCO2`: the pIC50 was 4.96 with A549 [1]; 5.04 in the assay with KB [2]; 5.07 in the assay on K562; less than 4.00 in the assay with SiHa; 4.17 in the assay with HT-29; 4.03 in [3].
For the compound `O=C(NCc1c[nH]c2ccccc12)[C@@H](Cc1ccc2c(c1)OCO2)[C@@H](CO)Cc1ccc2c(c1)OCO2`, the outcome in the assay with KB [4], in the assay on KB [5], with KB [6], in the assay on KB [7], with KB [8] and in the assay with KB [9] was Active. The result in the assay with KB [10] and in the assay on KB [11] was Active. The pIC50 with A549 [1] was less than 4.00; in the assay on KB [2], 5.20; in the assay with K562, less than 4.00; in the assay on SiHa it was less than 4.00; in the assay on HT-29, 4.28; in assay [3], less than 4.00.
Turning to `O=C(NCCc1ccccc1)[C@@H](Cc1ccc2c(c1)OCO2)[C@@H](CO)Cc1ccc2c(c1)OCO2`, the negative-log IC50 (pIC50) is 5.14 in the assay with A549 [1]; 5.15 with KB [2]; 5.10 with K562; 4.24 with SiHa; 4.23 in the assay on HT-29; 5.11 in assay [3].
On to `O=C(O)CC1OC[C@@H](Cc2ccc3c(c2)OCO3)[C@@H]1Cc1ccc2c(c1)OCO2` (some centres not stated), for which the pIC50 is 4.28 with A549 [1]; 4.13 in the assay with KB [2]; 5.10 in the assay with K562; less than 4.00 in the assay with SiHa; less than 4.00 in the assay on HT-29; less than 4.00 in assay [3].
`O=C1[C@@H](Cc2ccc3c(c2)OCO3)[C@H](Cc2ccc3c(c2)OCO3)C(=O)N1Cc1ccccc1`: the pIC50 in the assay on A549 [1] is 4.23; in the assay on KB [2], 5.13; with K562 it was 5.05; in the assay with SiHa, less than 4.00; in the assay with HT-29, 4.14; in assay [3], 4.18.
`COc1ccc(CN2C(=O)[C@@H](Cc3ccc4c(c3)OCO4)[C@H](Cc3ccc4c(c3)OCO4)C2=O)cc1`: the pIC50 in the assay with A549 [1] was 4.34; with KB [2] it was 5.04; in the assay with K562, 5.06; with SiHa, 4.48; in the assay on HT-29, 4.14; in assay [3], less than 4.00.
For `OC1OC[C@@H](Cc2ccc3c(c2)OCO3)[C@@H]1Cc1ccc2c(c1)OCO2` (some centres not stated), the pIC50 was 5.08 in the assay on A549 [1]; 5.09 in the assay with KB [2]; 5.06 in the assay with K562; less than 4.00 with SiHa; 4.34 with HT-29; 4.35 in assay [3].
With `COc1cc([C@@H]2c3cc4c(cc3[C@@H](O[C@@H]3O[C@@H]5CO[C@@H](C)O[C@H]5[C@H](O)[C@H]3O)[C@H]3COC(=O)[C@H]23)OCO4)cc(OC)c1O` [ETOPOSIDE], the pIC50 in the assay with K562 was 5.36.
Turning to `O=C(NCc1ccc(F)cc1)[C@@H](Cc1ccc2c(c1)OCO2)[C@@H](CO)Cc1ccc2c(c1)OCO2`, the pIC50 in the assay with A549 [1] is 5.05; in the assay on KB [2] it was 4.47; in the assay on K562, 5.11; with SiHa, 4.10; in the assay on HT-29, 4.61; in assay [3], 4.47.
`O=C(NCCO)[C@@H](Cc1ccc2c(c1)OCO2)[C@@H](CO)Cc1ccc2c(c1)OCO2`: the pIC50 in the assay on A549 [1] is less than 4.00; in the assay with KB [2], 5.10; in the assay with K562, 4.06; in the assay with SiHa, 4.07; in the assay on HT-29, 4.29; in assay [3], 4.34.
For the compound `CC(C)CCNC(=O)[C@@H](Cc1ccc2c(c1)OCO2)[C@@H](CO)Cc1ccc2c(c1)OCO2`, the pIC50 in the assay with A549 [1] is 5.06; in the assay with KB [2] it was 5.05; with K562, 4.31; in the assay with SiHa, 4.02; with HT-29, 4.62; in assay [3], 4.18.
`O=C(NCc1ccc(C(F)(F)F)cc1)[C@@H](Cc1ccc2c(c1)OCO2)[C@@H](CO)Cc1ccc2c(c1)OCO2`: the pIC50 is less than 4.00 with A549 [1]; 4.72 with KB [2]; 5.05 with K562; 4.13 with SiHa; 4.19 in the assay with HT-29; less than 4.00 in [3].
With `O=C1OC[C@@H](Cc2ccc3c(c2)OCO3)[C@@H]1Cc1ccc2c(c1)OCO2`, the outcome in the assay with KB [4], in the assay with A549 [12], with A549 [13], in the assay on A549 [14], in the assay with KB [5] and with KB [6] was Active. In addition, the result in the assay on KB [7], in the assay on A549 [15], in the assay with A549 [16], in the assay on KB [8], in the assay on A549 [17] and with KB [9] was Active. Besides, the outcome in the assay with A549 [18], with KB [10], with A549 [19] and with KB [11] was Active. In addition, the pIC50 is 5.10 with A549 [1]; 5.11 in the assay on KB [2]; 5.04 with K562; 4.16 in the assay with SiHa; 4.45 in the assay on HT-29; 4.14 in assay [3].
Consider `COc1ccc(CNC(=O)[C@@H](Cc2ccc3c(c2)OCO3)[C@@H](CO)Cc2ccc3c(c2)OCO3)cc1`, for which the outcome in the assay with A549 [12], with A549 [13], in the assay on A549 [14], in the assay on A549 [15], in the assay on A549 [16] and in the assay with A549 [17] was Active. For the same compound, the outcome with A549 [18] and in the assay with A549 [19] was Active. Also, the pIC50 was 5.18 in the assay on A549 [1]; 5.04 in the assay on KB [2]; 5.08 with K562; 4.04 in the assay on SiHa; 4.29 with HT-29; 4.34 in assay [3].
Consider `O=C1[C@@H](Cc2ccc3c(c2)OCO3)[C@H](Cc2ccc3c(c2)OCO3)C(=O)N1Cc1ccc(F)cc1`, for which the pIC50 is less than 4.00 with A549 [1]; 5.05 in the assay with KB [2]; less than 4.00 with K562; less than 4.00 in the assay on SiHa; 4.14 in the assay with HT-29; less than 4.00 in assay [3].
Turning to `COc1cccc(CNC(=O)[C@@H](Cc2ccc3c(c2)OCO3)[C@@H](CO)Cc2ccc3c(c2)OCO3)c1`, the pIC50 was 5.14 with A549 [1]; 4.09 with KB [2]; 5.10 in the assay on K562; 4.60 in the assay with SiHa; 4.59 with HT-29; less than 4.00 in assay [3].
`OC[C@@H](Cc1ccc2c(c1)OCO2)[C@@H](CO)Cc1ccc2c(c1)OCO2`: the negative logarithm of the IC50 (pIC50) with A549 [1] is 4.12; in the assay with KB [2], 5.11; in the assay on K562 it was 4.52; in the assay with SiHa it was less than 4.00; in the assay on HT-29, less than 4.00; in [3] it was 4.07.
Take `CC(C)CCN1C(=O)[C@@H](Cc2ccc3c(c2)OCO3)[C@H](Cc2ccc3c(c2)OCO3)C1=O`: the pIC50 with A549 [1] is less than 4.00; in the assay on KB [2] it was 5.11; in the assay on K562 it was less than 4.00; with SiHa, 4.05; in the assay on HT-29, 4.18; in [3], 4.17.
On to `O=C1[C@@H](Cc2ccc3c(c2)OCO3)[C@H](Cc2ccc3c(c2)OCO3)C(=O)N1CCc1ccccc1`, for which the pIC50 is less than 4.00 in the assay on A549 [1]; 4.20 in the assay with KB [2]; 5.04 in the assay on K562; 4.02 in the assay on SiHa; 4.18 with HT-29; 4.19 in [3].
As to `COc1cc([C@@H]2c3cc4c(cc3[C@H](O)[C@H]3COC(=O)[C@H]23)OCO4)cc(OC)c1OC` [PODOFILOX], the pIC50 in [20] is 8.00.
